Experimental data published in article PMC10458253, “Unraveling the In Vitro Toxicity Profile of Psychedelic 2C Phenethylamines and Their N-Benzylphenethylamine (NBOMe) Analogues” (Pharmaceuticals, 2023).
Structures can show the parent of a compound that is named as a salt.

Experiments:
[1] = pH 7.4; cited from earlier work
[2] = PAMPA-BBB permeability assay
Excerpt: In the present study we used a Parallel Artificial Membrane Permeation Assay (PAMPA) with a membrane mimicking the BBB phospholipidic composition (PAMPA-BBB) to evaluate and predict passive, transcellular permeability of the mescaline-NBOMe, 25B-NBOMe and 25N-NBOMe drugs.
The PiON inc database software was used for data analysis.

[3] = tested on: differentiated SH-SY5Y cells; assay: Intracellular ROS (DCFH-DA probe), differentiated SH-SY5Y; format: cell-based; details: positive control, 200 µM, 24 h, vs negative control cells
Description: Reactive oxygen species (ROS) production was evaluated using the 2′,7′-dichlorofluorescein diacetate (DCFH-DA) probe. In the cytoplasm, DCFH-DA is hydrolyzed producing 2′,7′-dichlorodihydrofluorescein (DCFH) that, in the presence of ROS, is easily oxidized to the highly fluorescent 2′,7′-dichlorofluorescein (DCF).
(§1) ROS production was evaluated by using the well-known membrane permeable fluorescent probe 2′,7′-dichlorofluorescein diacetate (DCFH-DA). Both cell lines were seeded in 96-well cell culture plates, and pre-incubated with 10 µM DCFH-DA, protected from light, at 37 °C, in a 5% CO2–95% air atmosphere. After 30 min, DCFH-DA was removed, and the cells were exposed to the drugs (0–500 µM for SH-SY5Y cells and 0–1000 µM for HepG2 cells), at 37 °C, in a 5% CO2–95% air atmosphere. Subsequently, after 24 h of exposure, the fluorescence was measured at 485 nm excitation and 530 nm emission wavelengths in a multi-well plate reader (PowerWaveX BioTek Instruments, Winooski, VT, USA). Additionally, tert-butyl hydroperoxide (200 µM, 24 h) was used as a positive control for ROS overproduction. The results were expressed as percentage of control cells. At least four independent experiments were performed, in triplicate.

[4] = tested on: HepG2 cells; assay: Intracellular ROS (DCFH-DA probe), HepG2; format: cell-based; details: HepG2, positive control, 200 µM, 24 h, vs control cells (0 µM)
Description: as §1

SMILES	−Log Pe ± SD [2]	also measured
CC(=O)Nc1ccccc1 [Acetanilide]	–	CHI (IAM) [1]: 11.57
CC(=O)[C@H]1CC[C@H]2[C@@H]3CCC4=CC(=O)CC[C@]4(C)[C@H]3CC[C@]12C [Progesterone, reference compound]	4.5 ± 0.44	–
CC(C)NCC(O)COc1cccc2ccccc12 (stereo not drawn) [Propanolol. HCl, reference compound]	4.6 ± 0.42	–
C=C[C@H]1C[N@@]2CC[C@H]1C[C@@H]2[C@@H](O)c1ccnc2ccc(OC)cc12 [Quinidine. HCl, reference compound]	4.8 ± 0.39	–
CC(C)(C)OO [t-BHP, tert-butyl hydroperoxide]	–	ROS intracellular levels [3]: significant increase in ROS intracellular levels; ROS intracellular levels [4]: significant increase in ROS levels
